From patent US4199504A (priority 1978, dated 1980)

What was measured:
[1] = test system: Gardner lymphosarcoma (GLS); assay: Gardner lymphosarcoma (GLS) transplanted in mice, tumor inhibition or prolongation of survival; format: in vivo
Experimental: (§1) The compounds of this invention and those preparable by the process disclosed herein are active against transplanted tumors in mice in vivo.
(§2) The following table--Table 1--gives the results of experiments in which mice bearing transplanted Gardner lymphosarcoma (GLS), C3 H mammary tumor, B16 melanoma, P 1534(J) leukemia, P388 leukemia or 755 adenocarcinoma were treated with a compound of this invention. In the table, column 1 gives the name of the compound; column 2, the tumor system employed; column 3, the dosage schedule and column 4, the percent inhibition of tumor growth or increased life span.

P388 leukemia = P388 leukemia transplanted in mice, tumor inhibition or prolongation of survival; format: in vivo
Experimental: as §1, §2

leukemias = details: clinical trial in humans; cited from earlier work
755 adenocarcinoma = 755 adenocarcinoma transplanted in mice, tumor inhibition or prolongation of survival; format: in vivo
Experimental: as §1, §2

P 1534(J) leukemia = P 1534(J) leukemia transplanted in mice, tumor inhibition or prolongation of survival; format: in vivo; details: P1534(J)
Experimental: as §1, §2

C3 H mammary tumor = assay: C3H mammary tumor transplanted in mice, tumor inhibition or prolongation of survival; format: in vivo
Experimental: as §1, §2

[2] = test system: experimental malignancies; details: naturally-occurring Vinca alkaloids; prior patents; cited from earlier work
B16 melanoma = B16 melanoma transplanted in mice, tumor inhibition or prolongation of survival; format: in vivo
Experimental: as §1, §2

Question: Which “Percent Inhibition or Prolongation of Survival Time” value ([1]; 0.4 mg./kg. × 9) does the source give for `CCC1(O)CC2CN(CCc3c([nH]c4ccccc34)C(C(=O)OC)(c3cc4c(cc3OC)N(C)C3C(O)(C(=O)NCCOCCNC(=O)C5(O)C(O)C6(CC)C=CCN7CCC8(c9cc(C%10(C(=O)OC)CC%11CN(CCc%12c%10[nH]c%10ccccc%12%10)CC(O)(CC)C%11)c(OC)cc9N(C)C58)C76)C(O)C5(CC)C=CCN6CCC43C65)C2)C1` (stereo not drawn) [bis[β -(4-Desacetyl VLB C-3 carboxamido)ethyl]ether disulfate] here?
Answer: Its value is 62%.

Question: And the “Percent Inhibition or Prolongation of Survival Time” value (P388 leukemia; P388, 0.6 mg./kg. × 3)?
Answer: Its value is 53%.

Question: What about the “Percent Inhibition or Prolongation of Survival Time” value (P388 leukemia; P388, 0.9 mg./kg. × 3) of the same molecule?
Answer: Its value is 77%.

Question: And the “Percent Inhibition or Prolongation of Survival Time” value (P388 leukemia; P388, 1.2 mg./kg. × 3)?
Answer: Its value is 85%.

Question: And the “Toxic (Percent Inhibition or Prolongation of Survival Time)” value (P388 leukemia; P388, 1.8 mg./kg. × 3)?
Answer: The value was “Toxic”.

Question: What does the source list for `CC[C@]1(O)C[C@@H]2CN(CCc3c([nH]c4ccccc34)[C@@](C(=O)OC)(c3cc4c(cc3OC)N(C)[C@H]3[C@@](O)(C(N)=O)[C@H](O)[C@]5(CC)C=CCN6CC[C@]43[C@@H]65)C2)C1` [vindesine, 4-desacetyl VLB C-3 carboxamide]?
Answer: effectiveness against leukemias (leukemias): effective against leukemias including vincristine-resistant leukemias; neurotoxicity compared with vincristine (leukemias): less neurotoxicity than does vincristine

Question: Which “Percent Inhibition or Prolongation of Survival Time” value (755 adenocarcinoma; 755, 0.6 mg./kg. × 3) does the source give for `CCC1(O)CC2CN(CCc3c([nH]c4ccccc34)C(C(=O)OC)(c3cc4c(cc3OC)N(C)C3C(O)(C(=O)NCC[Se][Se]CCNC(=O)C5(O)C(O)C6(CC)C=CCN7CCC8(c9cc(C%10(C(=O)OC)CC%11CN(CCc%12c%10[nH]c%10ccccc%12%10)CC(O)(CC)C%11)c(OC)cc9N(C)C58)C76)C(O)C5(CC)C=CCN6CCC43C65)C2)C1` (stereo not drawn) [bis[β-(4-Desacetyl VLB C-3 carboxamido)ethyl]diselenide disulfate] here?
Answer: The value was 26-32%.

Question: What about the “Percent Inhibition or Prolongation of Survival Time” value (755 adenocarcinoma; 755, 0.9 mg./kg. × 3) of the same molecule?
Answer: Its value is 21-62%.

Question: What about the “Percent Inhibition or Prolongation of Survival Time” value (755 adenocarcinoma; 755, 1.2 mg./kg. × 3) of the same molecule?
Answer: Its value is 31-42%.

Question: What about the “Percent Inhibition or Prolongation of Survival Time” value (755 adenocarcinoma; 755, 1.8 mg./kg. × 3) of the same molecule?
Answer: The value was 89%.

Question: And the “Percent Inhibition or Prolongation of Survival Time” value ([1]; 1.5 mg./kg. × 3)?
Answer: The value was 29%.

Question: And the “Percent Inhibition or Prolongation of Survival Time” value ([1]; 2.0 mg./kg. × 3)?
Answer: Its value is 57%.

Question: What about the “Percent Inhibition or Prolongation of Survival Time” value ([1]; 2.5 mg./kg. × 3) of the same molecule?
Answer: Its value is 72%.

Question: What about the “Percent Inhibition or Prolongation of Survival Time” value (P 1534(J) leukemia; 1.2 mg./kg. × 3) of the same molecule?
Answer: The value was 21%.

Question: What about the “Percent Inhibition or Prolongation of Survival Time” value (P 1534(J) leukemia; 1.8 mg./kg. × 3) of the same molecule?
Answer: Its value is 66%.

Question: What about the “Percent Inhibition or Prolongation of Survival Time” value (C3 H mammary tumor; 1.5 mg./kg. × 3) of the same molecule?
Answer: Its value is 56%.

Question: And the “Percent Inhibition or Prolongation of Survival Time” value (C3 H mammary tumor; 2.0 mg./kg. × 3)?
Answer: Its value is 72%.

Question: What about the “Toxic (Percent Inhibition or Prolongation of Survival Time)” value (C3 H mammary tumor; 2.5 mg./kg. × 3) of the same molecule?
Answer: Its value is “Toxic”.

Question: With `CC[C@]1(O)C[C@H]2CN(CCc3c([nH]c4ccccc34)[C@@](C(=O)OC)(c3cc4c(cc3OC)N(C=O)[C@H]3[C@@](O)(C(=O)OC)[C@H](OC(C)=O)[C@]5(CC)C=CCN6CC[C@]43[C@@H]65)C2)C1` [leurocristine] as the molecule, how does the “active in the treatment of experimental malignancies in animals” value (“active in the treatment” below) [2] read?
Answer: The value was “active”.

Question: For `CCC1(O)CC2CN(CCc3c([nH]c4ccccc34)C(C(=O)OC)(c3cc4c(cc3OC)N(C)C3C(O)(C(=O)NCCCCNC(=O)C5(O)C(O)C6(CC)C=CCN7CCC8(c9cc(C%10(C(=O)OC)CC%11CN(CCc%12c%10[nH]c%10ccccc%12%10)CC(O)(CC)C%11)c(OC)cc9N(C)C58)C76)C(O)C5(CC)C=CCN6CCC43C65)C2)C1` (stereo not shown) [1,4-bis(4-Desacetyl VLB C-3 carboxamido)butane disulfate], which “Percent Inhibition or Prolongation of Survival Time” value ([1]; 0.4 mg./kg. × 9) is on record?
Answer: The value was 40%.

Question: Which “Percent Inhibition or Prolongation of Survival Time” value (755 adenocarcinoma; 755, 0.6 mg./kg. × 3) does the source give for `CCC1(O)CC2CN(CCc3c([nH]c4ccccc34)C(C(=O)OC)(c3cc4c(cc3OC)N(C)C3C(O)(C(=O)NCCSSCCNC(=O)C5(O)C(O)C6(CC)C=CCN7CCC8(c9cc(C%10(C(=O)OC)CC%11CN(CCc%12c%10[nH]c%10ccccc%12%10)CC(O)(CC)C%11)c(OC)cc9N(C)C58)C76)C(O)C5(CC)C=CCN6CCC43C65)C2)C1` (stereo not drawn) [bis[β-(4-Desacetyl VLB C-3 carboxamido)ethyl]disulfide disulfate] here?
Answer: The value was 29-34%.

Question: What about the “Percent Inhibition or Prolongation of Survival Time” value (755 adenocarcinoma; 755, 0.9 mg./kg. × 3) of the same molecule?
Answer: Its value is 34-54%.

Question: And the “Percent Inhibition or Prolongation of Survival Time” value (755 adenocarcinoma; 755, 1.6 mg./kg. × 3)?
Answer: The value was 60%.

Question: What about the “Percent Inhibition or Prolongation of Survival Time” value (B16 melanoma; B16, 0.6 mg./kg. × 3) of the same molecule?
Answer: Its value is 118%.

Question: What about the “number of indefinite survivors” value (B16 melanoma; B16, 0.6 mg./kg. × 3) of the same molecule?
Answer: Its value is 7.

Question: And the “Percent Inhibition or Prolongation of Survival Time” value (B16 melanoma; B16, 0.9 mg./kg. × 3)?
Answer: Its value is 86%.

Question: And the “number of indefinite survivors” value (B16 melanoma; B16, 0.9 mg./kg. × 3)?
Answer: Its value is 7.

Question: And the “Percent Inhibition or Prolongation of Survival Time” value (B16 melanoma; B16, 1.2 mg./kg. × 3)?
Answer: Its value is 24%.

Question: And the “number of indefinite survivors” value (B16 melanoma; B16, 1.2 mg./kg. × 3)?
Answer: Its value is 3.

Question: What about the “Percent Inhibition or Prolongation of Survival Time” value ([1]; 0.4 mg./kg. × 9) of the same molecule?
Answer: The value was 43-100%.

Question: What about the “Percent Inhibition or Prolongation of Survival Time” value ([1]; 0.9 mg./kg. × 3) of the same molecule?
Answer: The value was 34-46%.

Question: What about the “Percent Inhibition or Prolongation of Survival Time” value ([1]; 1.2 mg./kg. × 3) of the same molecule?
Answer: Its value is 62-93%.

Question: And the “Percent Inhibition or Prolongation of Survival Time” value (P388 leukemia; P388, 0.6 mg./kg. × 3)?
Answer: The value was 33-44%.

Question: And the “Percent Inhibition or Prolongation of Survival Time” value (P388 leukemia; P388, 0.9 mg./kg. × 3)?
Answer: The value was 39-47%.

Question: What about the “Percent Inhibition or Prolongation of Survival Time” value (P388 leukemia; P388, 1.2 mg./kg. × 3) of the same molecule?
Answer: Its value is 53-61%.

Question: And the “Percent Inhibition or Prolongation of Survival Time” value (P 1534(J) leukemia; 0.6 mg./kg. × 3)?
Answer: Its value is 20-39%.

Question: What about the “Percent Inhibition or Prolongation of Survival Time” value (P 1534(J) leukemia; 0.9 mg./kg. × 3) of the same molecule?
Answer: Its value is 50-53%.

Question: And the “Percent Inhibition or Prolongation of Survival Time” value (P 1534(J) leukemia; 1.2 mg./kg. × 3)?
Answer: The value was 62%.

Question: And the “Toxic (Percent Inhibition or Prolongation of Survival Time)” value (P 1534(J) leukemia; 1.2 mg./kg. × 3)?
Answer: Its value is “Toxic”.

Question: And the “Percent Inhibition or Prolongation of Survival Time” value (P 1534(J) leukemia; 1.6 mg./kg. × 3)?
Answer: Its value is 90-99%.

Question: And the “Percent Inhibition or Prolongation of Survival Time” value (C3 H mammary tumor; 0.9 mg./kg. × 3)?
Answer: The value was 31-36%.

Question: And the “Toxic (Percent Inhibition or Prolongation of Survival Time)” value (C3 H mammary tumor; 1.2 mg./kg. × 3)?
Answer: Its value is “Toxic”.

Question: Which “active in the treatment” value [2] does the source give for `CCC1CC2CN(CCc3c([nH]c4ccccc34)C(C(=O)OC)(c3cc4c(cc3OC)N(C)C3C(O)(C(=O)OC)C(OC(C)=O)C5(CC)C=CCN6CCC43C65)C2)C1` (stereo not shown) [deoxy VLB "A"] here?
Answer: Its value is “active”.

Question: For `CC[C@]1(O)C[C@@H]2CN(CCc3c([nH]c4ccccc34)[C@@](C(=O)OC)(c3cc4c(cc3OC)N(C)[C@H]3[C@@](O)(C(=O)OC)[C@H](OC(C)=O)[C@]5(CC)C=CCN6CC[C@]43[C@@H]65)C2)C1` [vincaleukoblastine], which “active in the treatment” value [2] is on record?
Answer: The value was “active”.

Question: Which “active in the treatment” value [2] does the source give for `CC[C@]12CN3CCc4c([nH]c5ccccc45)[C@@](C(=O)OC)(c4cc5c(cc4OC)N(C=O)[C@H]4[C@@](O)(C(=O)OC)[C@H](OC(C)=O)[C@]6(CC)C=CCN7CC[C@]54[C@@H]76)C[C@@H](C3)[C@H]1O2` [leuroformine] here?
Answer: Its value is “active”.

Question: For `CC[C@]12CN3CCc4c([nH]c5ccccc45)[C@@](C(=O)OC)(c4cc5c(cc4OC)N(C)[C@H]4[C@@](O)(C(=O)OC)[C@H](OC(C)=O)[C@]6(CC)C=CCN7CC[C@]54[C@@H]76)C[C@H](C3)[C@H]1O2` [leurosine], which “active in the treatment” value [2] is on record?
Answer: Its value is “active”.

Question: With `CCC1(O)CN2CCc3c([nH]c4ccccc34)C(C(=O)OC)(c3cc4c(cc3OC)N(C)C3C(O)(C(=O)OC)CC5(CC)C=CCN6CCC43C65)CC(C2)C1O` (stereo not shown) [4-desacetoxy-3'-hydroxyvinblastine] as the molecule, how does the “active in the treatment” value [2] read?
Answer: The value was “active”.

Question: With `CCC1(O)CN2CCc3c([nH]c4ccccc34)C(C(=O)OC)(c3cc4c(cc3OC)N(C)C3C(O)(C(=O)OC)C(OC(C)=O)C5(CC)C=CCN6CCC43C65)CC(C2)C1O` (stereo not shown) [vincadioline] as the molecule, how does the “active in the treatment” value [2] read?
Answer: Its value is “active”.
